Source: US4963563A, “6-substituted-1,2,3,4-tetrahydroisoquinolines” (Abbott Laboratories, priority 1989, dated 1990)
Counter-ions that a name gives are not always drawn.

How the values were obtained:
alpha-1-receptor = biological target: T1, alpha-1-receptor (Rattus norvegicus, UniProt P15823); test: Radioligand binding, alpha-1 adrenoceptor ([3H]-pyrazosin, rat liver homogenates)
T1 sequence (P15823 1-515): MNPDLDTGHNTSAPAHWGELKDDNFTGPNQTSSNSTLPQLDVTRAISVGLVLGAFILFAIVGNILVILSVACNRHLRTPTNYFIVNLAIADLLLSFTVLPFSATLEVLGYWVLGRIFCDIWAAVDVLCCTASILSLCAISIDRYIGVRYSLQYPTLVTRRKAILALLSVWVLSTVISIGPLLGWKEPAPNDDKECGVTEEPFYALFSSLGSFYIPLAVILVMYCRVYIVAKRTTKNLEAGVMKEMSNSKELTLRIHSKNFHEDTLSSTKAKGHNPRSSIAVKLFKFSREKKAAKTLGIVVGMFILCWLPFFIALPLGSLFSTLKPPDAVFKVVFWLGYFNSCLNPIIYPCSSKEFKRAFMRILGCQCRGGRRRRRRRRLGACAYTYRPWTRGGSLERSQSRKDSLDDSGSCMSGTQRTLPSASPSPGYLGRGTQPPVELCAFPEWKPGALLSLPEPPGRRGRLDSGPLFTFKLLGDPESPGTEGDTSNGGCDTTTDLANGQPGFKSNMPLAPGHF

[1] = tested on: normal eyes of rabbits (intraocular pressure); test: Antiglaucoma activity: intraocular pressure after instillation into normal eyes of rabbits; type: in vivo, male, albino New Zealand rabbits
Protocol: In order to evaluate antiglaucoma activity, the test compounds were dissolved in the vehicle, a 0.2% aqueous solution of hydroxymethylcellulose at various concentrations such as 0.03%, 0.1%, or 0.3%. Comparisons were made to the reference standard, pilocarpine hydrochloride which was dissolved in the vehicle at a concentration of 0.5%. Control treatment was a volume dose of vehicle.
Male, albino New Zealand rabbits (Scientific Animal Farms and/or Kuiper's Rabbit Ranch) weighing 2.06-2.5 kg were used in the study. Intraocular pressures were obtained in the normal eyes of the animals using a Bausch and Lomb Applamatic Tonometer. Three separate sessions provided the baseline pressures for each eye. The test compound or vehicle (0.1 mL) was instilled into the eyes of 6 different rabbits according to a randomized dosing schedule. Intraocular pressures were taken at 5, 15, 30, 45, 60, 90 and 120 minutes after instillation of the test compounds.
Statistical treatment was by one-way analysis of variance. Results are shown (Table 1) for a representative sample of the compounds claimed.

alpha-2-receptor = test: Radioligand binding, alpha-2 adrenoceptor ([3H]-rauwolscine, rat cerebral cortices)
[2] = 5 minutes after administration, 0.3% solution, 0.1 mL instilled
[3] = 15 minutes after administration, 0.3% solution, 0.1 mL instilled
[4] = 90 minutes after administration, 0.3% solution, 0.1 mL instilled
[5] = 120 minutes after administration, 0.3% solution, 0.1 mL instilled

Ki (alpha-1-receptor) [µM]	Ki (alpha-2-receptor) [µM]	SMILES	Percent Change in IOP vs Baseline [1, 2] [%]	Percent Change in IOP vs Baseline [1, 3] [%]	Percent Change in IOP vs Baseline [1, 4] [%]	Percent Change in IOP vs Baseline [1, 5]	further results
0.15	0.0043	COc1ccc2c(c1)CCN(CCCc1cccs1)C2.Cl [Example 2, 1,2,3,4-Tetrahydro-6-methoxy-N-3-(2-thienyl)propylisoquinoline hydrochloride]	-50	-41	-13	+8%	
0.206	0.0046	COc1ccc2c(c1)CCN(CCCc1cccc(F)c1)C2 [Example 5, 1,2,3,4-Tetrahydro-6-methoxy-N-3-(m-fluorophenyl)propyl isoquinoline hydrochloride]					
0.154	0.0022	COc1ccc2c(c1)CCN(CCCc1ccco1)C2 [Example 6, 1,2,3,4-Tetrahydro-6-methoxy-N-3-(2-furyl)propylisoquinoline hydrochloride]					
0.217	0.0059	COc1ccc2c(c1)CCN(CCCc1ccccc1)C2 [Example 7, 1,2,3,4-Tetrahydro-6-methoxy-N-(3-phenylpropyl)isoquinoline hydrochloride]					
0.174	0.0107	COc1cccc(CCCN2CCc3cc(OC)ccc3C2)c1 [Example 8, 1,2,3,4-Tetrahydro-6-methoxy-N-3-(3-methoxyphenyl)propyl isoquinoline hydrochloride]					
0.114	0.0056	Cc1ccc2c(c1)CCN(CCCc1ccccc1)C2 [Example 13, 1,2,3,4-Tetrahydro-6-methyl-N-(3-(phenylpropylisoquinoline Hydrochloride]					
		CC(C)(C)C(=O)Oc1ccc2c(c1)CCN(CCCc1cccs1)C2.CS(=O)(=O)O [Example 16, 1,2,3,4-Tetrahydro-6-trimethylacetoxy-N-3-(2-thienyl)propylisoquinoline methane sulfonate]	-11	-12	-36	-4%	
		CN(C)C(=O)Oc1ccc2c(c1)CCN(CCCc1cccs1)C2.CS(=O)(=O)O [Example 18, 1,2,3,4-Tetrahydro-6-((dimethylamino)carbonyl)oxy-2-N-(3-(2-thienyl)propyl)isoquinoline methane sulfonate]	-38	-26	-48	-12%	
		CC[C@@H]1C(=O)OC[C@@H]1Cc1cncn1C [Pilocarpine, pilocarpine hydrochloride, reference compound]					Percent Change in IOP vs Baseline ([1]; 15 minutes after administration, 0.5% solution (reference standard)): -22%; Percent Change in IOP vs Baseline ([1]; 90 minutes after administration, 0.5% solution (reference standard)): -20%; Percent Change in IOP vs Baseline ([1]; 120 minutes after administration, 0.5% solution (reference standard)): -33%
